{
  "source": "patent US20100105610A1",
  "about": "“Methods of Inhibiting Tumor Cell Aggressiveness Using the Microenvironment of Human Embryonic Stem Cells” (CHILDREN'S MEMORIAL HOSPITAL, priority 2006, published 2010)",
  "molecules": {"B1": {"name": "recombinant Nodal: recombinant Nodal (R&D Systems) (protein, UniProt Q96S42 238-347, looked up)", "Nodal homolog": "HHLPDRSQLCRKVKFQVDFNLIGWGSWIIYPKQYNAYRCEGECPNPVGEEFHPTNHAYIQSLLKRYQPHRVPSTCCAPVKTKPLSMLYVDNGRVLLDHHKDMIVEECGCL"}, "B2": {"name": "rLefty: recombinant Lefty-B (R&D Systems) (protein, UniProt O75610 77-366, looked up)", "Left-right determination …": "RFSQSFREVAGRFLALEASTHLLVFGMEQRLPPNSELVQAVLRLFQEPVPKAALHRHGRLSPRSARARVTVEWLRVRDDGSNRTSLIDSRLVSVHESGWKAFDVTEAVNFWQQLSRPRQPLLLQVSVQREHLGPLASGAHKLVRFASQGAPAGLGEPQLELHTLDLGDYGAQGDCDPEAPMTEGTRCCRQEMYIDLQGMKWAENWVLEPPGFLAYECVGTCRQPPEALAFKWPFLGPRQCIASETDSLPMIVSIKEGGRTRPQVVSLPNMRVQKCSCASDGALVPRRLQP"}},
  "format_in_all_cases": "cell-based, human",
  "key": {"C8161 cells [1]": {"test_system": "C8161 cells", "test": "Vasculogenic mimicry of C8161 cells", "conditions": "C8161 cells treated with ALK 4/5/7 inhibitor"}, "C8161 cells [2]": {"test_system": "C8161 cells", "test": "Membrane Invasion Culture System (MICS) invasion assay", "conditions": "C8161 cells treated with ALK 4/5/7 inhibitor", "quoted_text": "Bars represent the mean, normalized, invasion indices±standard deviations.\nThe aggressiveness of tumor cells is correlated with their ability to invade through the extracellular matrix; thus, the effect of hESC microenvironments on melanoma cell invasion was investigated.\nThe Membrane Invasion Culture System (MICS) chamber is used to evaluate the degree of tumor cell invasion through matrices in vitro (both stimulated and unstimulated) as described previously."}, "Notch 1, 2 and 4": {"test_system": "Notch 1, 2 and 4", "test": "Notch expression, Western blot in C8161 cells", "source_text": "Western blot analysis of C8161 cells 72 hrs following the administration of siRNA. […] Western blot analysis of Notch 1, 2 and 4 in C8161 cells treated with the Nodal inhibitor SB431542."}, "VE-Cadherin, Keratin 18": {"test_system": "VE-Cadherin, Keratin 18", "test": "Western blot of vasculogenic mimicry plasticity biomarkers in C8161 cells", "conditions": "C8161 cells on 3-D collagen I matrices for 6 days", "description": "(A) Western blot analyses of Nodal, phosphorylated SMAD-2, total SMAD 2/3, and Actin in C8161 cells 48 hours after administration of either vehicle or an ALK 4/5/7 inhibitor (SB431542, 1 μM, 10 μM). […] (B) Western blot analyses of Nodal, Tyrosinase and Actin in C8161 cells 24 hours after the administration of either vehicle or different concentrations of ALK inhibitor while (C) is a Western analyses for VE-Cadherin, Keratin 18 and Actin in C8161 cells cultured on 3-D collagen I matrices for 6 days in the presence of vehicle or different concentrations of ALK inhibitor."}, "Nodal": {"test_system": "Nodal", "test": "Nodal protein expression, Western blot", "description": "(§1) Protein lysates were prepared and quantified as previously described in Hess et al., 2001, Cancer Res. 61:3250-3255. Equal amounts of protein were separated by SDS-polyacrylamide gel electrophoresis under reducing conditions, and the resolved proteins were transferred onto Immobilon-P membranes (Millipore Corp., Bedford, Mass.). Membranes were blocked in 1% TBS, 0.1% Tween 20 (TBS-T) and 5% dry milk powder or 3% gelatin (for Nodal Westerns). Blots were incubated with anti-Nodal or anti-Lefty antibodies (Polyclonal rabbit anti-Nodal (H-110) 1:500 Santa Cruz Biotechnology, Santa Cruz, Calif.; Polyclonal goat anti-Lefty 1:500 R&D Systems, Minneapolis, Minn.), washed in TBS-T, and incubated with the appropriate horseradish peroxidase-labeled secondary antibody. Secondary antibodies were detected by enhanced chemiluminescence (Super Signal; Pierce, Rockford, Ill.) and exposure to autoradiography film (Molecular Technologies, St Louis, Mo.). Nodal protein was detected as two major bands at ˜48 and ˜35 kDa representing precursor and pro-Nodal respectively. Nodal often appeared as multiple bands, likely due to degradation of protein modifications. All experiments were done at least three times.\nConditioned matrices were prepared using hESCs, melanocytes, myoepithelial cells, amniotic fluid derived stem cells, or trophoblast cells on growth factor-reduced Matrigel (14 mg/mL; BD Biosciences) as previously described. Postovit et al., 2006, Stem Cells 24: 501-505. In all cases, cells were 80-100% confluent during the conditioning of the matrix. Alternatively, hESC-derived Lefty protein was seeded into Matrigel prior to polymerization. Human melanoma (C8161) or breast carcinoma (MDA-MB-231) cells, 2.5×10^5 cells/6-well dish, were subsequently exposed to this preconditioned matrix for 3 to 4 days.\nas §1, with “primary antibody (Table 2),” for “anti-Nodal or anti-Lefty antibodies (Polyclonal rabbit anti-Nodal (H-110) 1:500 Santa Cruz Biotechnology, Santa Cruz, Calif.; Polyclonal goat anti-Lefty 1:500 R&D Systems, Minneapolis, Minn.),”, “TBS-T or TBS-T containing 0.5M NaCl for the Nodal Westerns,” for “TBS-T,”, “Nodal often appeared as multiple bands, likely due to degradation of protein modifications. All experiments were done at least three times.” left out"}, "Lefty": {"test_system": "Lefty", "test": "Lefty knockdown in hESCs with FITC-tagged Morpholinos (microscopy, Western blot)", "source_text": "Cancer cells were also exposed to Matrigel conditioned by hESCs in which Lefty protein expression was knocked down with FITC-tagged Morpholino oligonucleotides specific for Lefty-A and Lefty-B (MO^LEFTY). […] The expression of Oct-3/4 and Nanog, representative of hESC pluripotency, was not affected during this time, and the morphology of the hESC colonies was not altered.\nNodal, and Lefty protein expression were inhibited using anti-sense Morpholino oligonucleotides (Gene Tools Inc., Philomath, Oreg.). The Morpholino sequences were selected based on manufacturer's recommendations (21-25 mer antisense). Fluoroscein (FITC)-conjugated control (5′-[…]-3′) [SEQ ID NO: 19], Nodal (5′-[…]-3′) [SEQ ID NO: 20], Lefty-A (5′-[…]-3′) [SEQ ID NO: 21], and Lefty-B (5′[…]-3′) [SEQ ID NO: 22]. Morpholinos (20 μM) were delivered using the scrape method. Topczewska et al., 2006. Cancer cells were sorted for FITC and were recovered for 1 day prior to experimentation."}, "H9 hESCs": {"test_system": "H9 hESCs", "test": "hESC pluripotency (Oct-3/4 and Nanog expression, colony morphology)", "conditions": "Oct-3/4, Nanog", "source_text": "(A) An abundance of the Nodal inhibitor Lefty within the hESC conditioned matrices (CMTX). Lefty protein is absent in the C8161 cells within its own conditioned matrix (C8161+CMTX). (B) Immunofluorescence localization of FITC-conjugated anti Lefty Morpholinos (MO^LEFTY) in H9 hESC colonies on Matrigel. (C) Western blot analysis of Lefty protein in H9 hESCs treated with either vehicle (Control), MO^Control (MO Control), or MO^Lefty (MO Lefty). Actin is used as a loading control. (D) Real Time RT-PCR analysis of Oct-3/4 and Nanog expression in H9 hESCs treated with either vehicle (H9), MO^CONTROL (MO Control), or MO^LEFTY (MO Lefty). Gene levels were normalized using 18s and bars represent mean gene expression normalized to H9. (E) Real Time RT-PCR analysis of Nodal mRNA expression in C8161 cells cultured for 3 days on control (unconditioned) Matrigel, Matrigel conditioned by hESCs (H9 CMTX) or Matrigel conditioned by hESCs in which Lefty protein expression was […] with Lefty-specific Morpholinos (H9 CMTX MO Lefty). (F) Western blot analysis of Nodal protein in human metastatic melanoma (C8161) and breast carcinoma (MDA-MB-231) cells exposed for 3 days to either control (unconditioned) Matrigel or to Matrigel seeded with Lefty protein purified from hESCs (H9-derived Lefty). […]"}, "C8161 cells [3]": {"test_system": "C8161 cells", "test": "Anchorage independent growth / soft agar colony formation, C8161", "conditions": "100 ng/mL", "description": "(§2) An in vitro colony forming assay was used to analyze colony-forming ability of poorly aggressive C81-61 cells, aggressive C8161 cells, C8161 cells treated with MONodal and C8161 cells treated with MONodal and rescued with recombinant Nodal (100 ng/mL). The assay was conducted using 50,000 cells suspended in 0.35% agarose in RPMI containing 10% serum, which were plated into 6-well dishes on 0.5% agar in the same medium. Colonies grew, and pictures were taken at day 7. After 2 weeks, colonies were stained with Crystal Violet and counted.\n(§3) Clonogenicity of cells are assessed as previously described. Hamburger, A. W., and Salmon, S. E., 1977, Science 197:461-463. Each parameter is tested in triplicate for clone formation in soft agar. Briefly, […] are plated in 60 mm Petri dishes in complete medium placed over the soft agar. On specific days after the cells are plated, phase contrast images of the colonies are taken using a Zeiss Axiovert 25 with an Hitachi HCV-20 color camera.\n(§4) Anchorage independent growth assays were conducted as previously described. Topczewska et al., 2006, Nat. Med. 12: 925-932."}, "MDA-MB-231 cells": {"test_system": "MDA-MB-231 cells", "test": "Anchorage independent growth / soft agar colony formation, MDA-MB-231", "conditions": "100 ng/mL", "description": "as §3, §4"}, "C81-61 cells": {"test_system": "C81-61 cells", "test": "Soft agar colony formation, C81-61", "conditions": "C81-61 cell line", "description": "as §2, §3"}},
  "data": [
    {"molecule": "NC(=O)c1ccc(-c2nc(-c3ccc4c(c3)OCO4)c(-c3ccccn3)[nH]2)cc1", "note": "[SB431542]", "values": [
      {"measurement": "vasculogenic mimicry", "setting": "C8161 cells [1]", "result": "abrogation"},
      {"measurement": "invasive ability", "setting": "C8161 cells [2]", "result": "reduction"},
      {"measurement": "Notch expression", "setting": "Notch 1, 2 and 4", "result": "relatively unaffected"},
      {"measurement": "expression of vasculogenic mimicry plasticity biomarkers", "setting": "VE-Cadherin, Keratin 18", "result": "reduction"},
      {"measurement": "Nodal expression", "setting": "Nodal; C8161 cells, 1 μM, 10 μM, 48 hours", "result": "down-regulation"}
    ]},
    {"molecule": "MO^LEFTY: FITC-tagged Morpholino oligonucleotides specific for Lefty-A and Lefty-B (SEQ ID NO: 21, 22) (chain 1 GCCACATGGTGCTGCCCTGGG; chain 2 CTGCATGGTGCTGCCCTGGAGGA; all phosphorodiamidate morpholino (PMO); FITC (fluorescein) conjugated, position not given here)", "values": [
      {"measurement": "Lefty protein expression in hESCs", "setting": "Lefty; H9 hESCs, Western blot, for up to 3 days", "result": "efficiently knocked down"},
      {"measurement": "hESC colonies in which the fluorescently-tagged Morpholinos could be detected", "setting": "Lefty; microscopy of treated hESC colonies", "result": "over 75%"},
      {"measurement": "stem cell differentiation", "setting": "H9 hESCs", "result": "did not induce stem cell differentiation"}
    ]},
    {"molecule": "B1", "values": [
      {"measurement": "rescue of inhibition of in vitro clonogenicity", "setting": "C8161 cells [3]; C8161 cells exposed to H9 CMTX", "result": "partially rescued"},
      {"measurement": "rescue of inhibition of in vitro clonogenicity", "setting": "C8161 cells [3]; C8161 cells exposed to H9 Lefty-containing matrix", "result": "completely rescued"},
      {"measurement": "rescue of reduced colony formation", "setting": "C8161 cells [3]; C8161 cells treated with MONodal", "result": "rescued"},
      {"measurement": "rescue of inhibition of in vitro clonogenicity", "setting": "MDA-MB-231 cells; MDA-MB-231 cells exposed to H9 CMTX", "result": "partially rescued"},
      {"measurement": "rescue of inhibition of in vitro clonogenicity", "setting": "MDA-MB-231 cells; MDA-MB-231 cells exposed to H9 Lefty-containing matrix", "result": "completely rescued"},
      {"measurement": "colony formation", "setting": "C81-61 cells", "result": "did not induce colony formation"}
    ]},
    {"molecule": "B2", "values": [
      {"measurement": "dose needed to inhibit Nodal protein relative to hESC counterpart", "setting": "Nodal; C8161 cells", "result": "higher doses"},
      {"measurement": "Nodal expression", "setting": "Nodal; C8161 cells exposed 48 hrs to 0-1000 ng/mL", "result": "reduces"}
    ]}
  ]
}
